According to US7858635B2 (priority 2005, dated 2010):
Read-outs that look alike come from different tables or passages of the source.

Experiments:
M4 muscarinic receptor = target: T1, M4 muscarinic receptor (Homo sapiens, UniProt P08173); assay: Functional mobilization of intracellular calcium (FLIPR, Fluo-3), M4-CHO cells; assay type: cell-based; conditions: for Emax: 100% efficacy is the maximum response obtained with the Carbachol control, read-out: M4 Efficacy
T1 construct: expressed in transfected cells; host or cells: CHO cells (M4-CHO, under puromycin, zeocin and blasticidin selection)
T1 sequence (P08173 1-479): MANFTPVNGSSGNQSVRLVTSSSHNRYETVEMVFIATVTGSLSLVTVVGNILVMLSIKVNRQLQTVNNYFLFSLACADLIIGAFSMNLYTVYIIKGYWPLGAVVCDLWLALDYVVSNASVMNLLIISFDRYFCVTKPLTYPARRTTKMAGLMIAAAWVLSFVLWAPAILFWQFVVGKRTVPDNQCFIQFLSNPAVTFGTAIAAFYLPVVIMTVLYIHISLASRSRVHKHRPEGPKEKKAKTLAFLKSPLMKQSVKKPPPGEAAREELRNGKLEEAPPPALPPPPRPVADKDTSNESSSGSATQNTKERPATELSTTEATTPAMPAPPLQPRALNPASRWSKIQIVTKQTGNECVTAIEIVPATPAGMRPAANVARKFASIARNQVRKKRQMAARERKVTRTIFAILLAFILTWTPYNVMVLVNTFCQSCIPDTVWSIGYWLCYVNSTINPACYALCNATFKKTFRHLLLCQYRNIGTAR
Procedure, shortened: (§1)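 Intracellular calcium was tracked by fluorescence (488/540 nm) over 60 sec after compound addition to dye-loaded CHO cells expressing the receptor. Inhibitory activity used a 15 min pre-incubation before carbachol at the subtype EC80.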

M1 muscarinic receptor = target: T2, M1 muscarinic receptor (Homo sapiens, UniProt P11229); assay: Functional mobilization of intracellular calcium (FLIPR, Fluo-3), M1-CHO cells; assay type: cell-based; conditions: for Emax: 100% efficacy is the maximum response obtained with the Carbachol control, read-out: M1 Efficacy
T2 construct: expressed in transfected cells; host or cells: CHO cells (M1-CHO, under zeocin and G418 selection)
T2 sequence (P11229 1-460): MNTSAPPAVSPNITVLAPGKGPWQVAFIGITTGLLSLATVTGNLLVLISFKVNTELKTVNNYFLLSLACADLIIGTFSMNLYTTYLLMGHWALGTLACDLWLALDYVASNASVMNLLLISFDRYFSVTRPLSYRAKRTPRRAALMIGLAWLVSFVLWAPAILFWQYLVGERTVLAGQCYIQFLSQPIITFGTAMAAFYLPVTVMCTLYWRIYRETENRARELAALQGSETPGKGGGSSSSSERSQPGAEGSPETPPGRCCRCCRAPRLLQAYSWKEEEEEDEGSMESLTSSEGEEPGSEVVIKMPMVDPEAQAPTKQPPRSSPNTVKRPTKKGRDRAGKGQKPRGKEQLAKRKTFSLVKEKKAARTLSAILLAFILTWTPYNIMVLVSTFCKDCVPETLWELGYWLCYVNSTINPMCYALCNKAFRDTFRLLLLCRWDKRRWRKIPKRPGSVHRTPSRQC
Procedure, shortened: as §1

[1] = compound nos. 1-454, M4-CHO cells, calcium mobilization
[2] = compound nos. 1-454, M1-CHO cells, calcium mobilization

Structure (SMILES) | Emax (M4 muscarinic receptor; compound nos. 1-454) [%] | M4 Activity (M4 muscarinic receptor; [1]) | Emax (M1 muscarinic receptor; compound nos. 1-454) [%] | M1 Activity (M1 muscarinic receptor; [2]) | M4 Activity (M4 muscarinic receptor; compound nos. 1-454) | M1 Activity (M1 muscarinic receptor; compound nos. 1-454) | Emax (M4 muscarinic receptor; compound nos. 455-509) [%] | M4 Activity (M4 muscarinic receptor; compounds 455-509) | Emax (M1 muscarinic receptor; compound nos. 455-509) [%] | M1 Activity (M1 muscarinic receptor; compounds 455-509)
CCOC(=O)N1CCC(N2CCC3(CC2)C(=O)Nc2ccccc23)CC1 [compound 191] | 55 to 70 | + (activity was measured to be greater than or equal to 4.0 μM) | 65 to 85 | +++ (activity was measured to be less than or equal to 0.7 μM) | – | – | – | – | – | –
CC(=O)N(C)[C@H]1CC2(CCN(C[C@H]3C[C@H]4CC[C@H]3C4)CC2)c2ccccc21 [compound 339] | < 55 | + (activity was measured to be greater than or equal to 4.0 μM) | < 65 | + (activity was measured to be greater than or equal to 3.0 μM) | – | – | – | – | – | –
Fc1ccc2c(c1)C1(CCN(CC3CCC4CCC3C4)CC1)CN2 (centres unmarked) [compound 13] | < 55 | + (activity was measured to be greater than or equal to 4.0 μM) | 65 to 85 | ++ (activity was measured to be between 0.7 μM and 3.0 μM) | – | – | – | – | – | –
Clc1ccc2c(c1)C1(CCO2)CCN(C[C@@H]2C[C@H]3C=C[C@H]2C3)CC1 [compound 164] | > 70 | + (activity was measured to be greater than or equal to 4.0 μM) | > 85 | ++ (activity was measured to be between 0.7 μM and 3.0 μM) | – | – | – | – | – | –
CCC(=O)CCN1CC2(CCN(C[C@@H]3C[C@H]4C=C[C@H]3C4)CC2)c2cc(F)ccc21 [compound 12] | < 55 | ++ (activity was measured to be between 0.1 μM and 4.0 μM) | < 65 | +++ (activity was measured to be less than or equal to 0.7 μM) | – | – | – | – | – | –
CCCC1CCC(N2CCC3(CC2)CNc2ccc(F)cc23)CC1 (centres unmarked) [compound 328] | 55 to 70 | + (activity was measured to be greater than or equal to 4.0 μM) | < 65 | ++ (activity was measured to be between 0.7 μM and 3.0 μM) | – | – | – | – | – | –
Fc1ccc2c(c1)C1(CCN(C3CC4CCC3C4)CC1)CN2 (centres unmarked) [compound 416] | < 55 | – | < 65 | – | + (activity was measured to be greater than or equal to 4.0 μM) | + (activity was measured to be greater than or equal to 3.0 μM) | – | – | – | –
CCOC(=O)N1CCC(N2CCC3(CC2)CN(C(=O)CC(C)(C)C)c2ccc(F)cc23)CC1 [compound 194] | 55 to 70 | + (activity was measured to be greater than or equal to 4.0 μM) | > 85 | +++ (activity was measured to be less than or equal to 0.7 μM) | – | – | – | – | – | –
c1ccc2c(c1)NCC21CCN(CC2CCCCC2)CC1 [compound 342] | 55 to 70 | ++ (activity was measured to be between 0.1 μM and 4.0 μM) | 65 to 85 | +++ (activity was measured to be less than or equal to 0.7 μM) | – | – | – | – | – | –
CC(=O)N1CC2(CCN(C3CCN(C(=O)O[C@H]4CCOC4)CC3)CC2)c2cc(F)ccc21 [compound 418] | < 55 | – | < 65 | – | + (activity was measured to be greater than or equal to 4.0 μM) | + (activity was measured to be greater than or equal to 3.0 μM) | – | – | – | –
CCOC(=O)N1CCC(N2CCC3(CC2)CN(C(C)=O)c2ccc(-c4ccc(C(F)(F)F)cc4)cc23)CC1 [compound 295] | 55 to 70 | +++ (activity was measured to be less than or equal to 0.1 μM) | 65 to 85 | +++ (activity was measured to be less than or equal to 0.7 μM) | – | – | – | – | – | –
O=C(O[C@@H]1CCOC1)N1C2CCC1CC(N1CCC3(CCc4ccccc43)CC1)C2 (some centres unmarked) [compound 43] | > 70 | + (activity was measured to be greater than or equal to 4.0 μM) | > 85 | +++ (activity was measured to be less than or equal to 0.7 μM) | – | – | – | – | – | –
CCCOC(=O)N1C2CCC1CC(N1CCC3(CC1)CN(C(=O)OCCOC)c1ccc(F)cc13)C2 (centres unmarked) [compound 405] | < 55 | – | < 65 | – | + (activity was measured to be greater than or equal to 4.0 μM) | ++ (activity was measured to be between 0.7 μM and 3.0 μM) | – | – | – | –
Cc1cc(C(=O)N2CC3(CCN(C4CC5CCC(C4)N5C(=O)OC(C)C)CC3)c3cc(F)ccc32)nn1C (centres unmarked) [compound 24] | < 55 | + (activity was measured to be greater than or equal to 4.0 μM) | < 65 | ++ (activity was measured to be between 0.7 μM and 3.0 μM) | – | – | – | – | – | –
CC(=O)N1CC2(CCN(C3CCCC(C(F)(F)F)C3)CC2)c2cc(F)ccc21 (centres unmarked) [compound 425] | < 55 | – | < 65 | – | + (activity was measured to be greater than or equal to 4.0 μM) | + (activity was measured to be greater than or equal to 3.0 μM) | – | – | – | –
COC(=O)N1CCC(CN2CCC3(CC2)CN(C(C)=O)c2ccc(C)cc23)CC1 [compound 423] | < 55 | – | < 65 | – | + (activity was measured to be greater than or equal to 4.0 μM) | ++ (activity was measured to be between 0.7 μM and 3.0 μM) | – | – | – | –
CC(=O)N1CC2(CCN(C3CC4CCC(C4)C3)CC2)c2cc(F)ccc21 (centres unmarked) [compound 35] | > 70 | ++ (activity was measured to be between 0.1 μM and 4.0 μM) | > 85 | +++ (activity was measured to be less than or equal to 0.7 μM) | – | – | – | – | – | –
CCOC(=O)N1CCC(N2CCC3(CC2)CN(CCOC)c2ccc(F)cc23)CC1 [compound 391] | < 55 | – | < 65 | – | + (activity was measured to be greater than or equal to 4.0 μM) | ++ (activity was measured to be between 0.7 μM and 3.0 μM) | – | – | – | –
CCOC(=O)N1CCC(N2CCC3(CC2)CN(C(=O)c2cccc(F)c2)c2ccc(F)cc23)CC1 [compound 410] | < 55 | – | < 65 | – | ++ (activity was measured to be between 0.1 μM and 4.0 μM) | ++ (activity was measured to be between 0.7 μM and 3.0 μM) | – | – | – | –
CCCOC(=O)N1C2CCC1CC(N1CCC3(CC1)CN(C(=O)O[C@@H]1CCOC1)c1ccc(F)cc13)C2 (some centres unmarked) [compound 115] | < 55 | ++ (activity was measured to be between 0.1 μM and 4.0 μM) | 65 to 85 | +++ (activity was measured to be less than or equal to 0.7 μM) | – | – | – | – | – | –
CCOC(=O)N1C2CCC1CC(N1CCC3(CC1)CN(S(=O)(=O)c1ccc(F)cc1)c1ccc(F)cc13)C2 (centres unmarked) [compound 40] | > 70 | ++ (activity was measured to be between 0.1 μM and 4.0 μM) | 65 to 85 | +++ (activity was measured to be less than or equal to 0.7 μM) | – | – | – | – | – | –
CN(C)C(=O)N1CCC2(CCN(C3CC4CCC(C3)N4c3cnccn3)CC2)c2ccccc21 (centres unmarked) [compound 486] | – | – | – | – | – | – | 25 to 100 | ++ (activity was measured to be between 2.0 μM and 5.0 μM) | > 100 | +++ (activity was measured to be less than or equal to 2.0 μM)
CN(C)C(=O)N1CC2(CCN(C3CCN(c4ncnc5ccsc45)CC3)CC2)c2cc(F)ccc21 [compound 496] | – | – | – | – | – | – | 25 to 100 | ++ (activity was measured to be between 2.0 μM and 5.0 μM) | > 100 | + (activity was measured to be greater than or equal to 5.0 μM)
